Data from patent publication US20130217694A1, “METHOD OF REDUCING THE SEVERITY OF INFLAMMATORY DERMATOLOGICAL CONDITIONS” (Allergan, Inc.., priority 2003, published 2013).
“Also recorded” adds a separate entry of the source.

Key:
[1] = biological target: T1, bovine α-1A adrenergic receptor (Bos taurus, UniProt P18130); assay: Intracellular Ca+2 response in HEK293 cells expressing bovine α-1A receptor; assay type: cell-based; conditions: for bovine α1A % E: percent efficacy relative to phenylephrine; for agonist activity at the α-1A receptor: result in words
T1 sequence (P18130 1-466): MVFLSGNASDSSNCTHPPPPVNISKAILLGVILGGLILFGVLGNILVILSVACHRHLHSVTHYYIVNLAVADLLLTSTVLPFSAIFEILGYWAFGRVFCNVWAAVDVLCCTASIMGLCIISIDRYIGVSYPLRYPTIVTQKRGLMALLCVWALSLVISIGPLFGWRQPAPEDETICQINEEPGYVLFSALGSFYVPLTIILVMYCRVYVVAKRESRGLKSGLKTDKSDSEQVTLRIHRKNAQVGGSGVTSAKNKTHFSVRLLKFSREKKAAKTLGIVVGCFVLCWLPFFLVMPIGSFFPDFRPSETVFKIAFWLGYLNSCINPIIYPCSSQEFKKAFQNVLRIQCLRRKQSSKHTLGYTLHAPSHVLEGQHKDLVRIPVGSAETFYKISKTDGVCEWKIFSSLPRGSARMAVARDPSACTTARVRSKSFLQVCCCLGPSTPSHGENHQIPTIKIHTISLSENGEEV
Protocol: The bovine α-1A and hamster α-1B receptor supernatants were added, in varying amounts, to naive HEK293 cells, which were then incubated for 48 hours. The transduced cell populations were replated at a lower density and grown in media containing 0.25 ug/ml puromycin. […] Receptor density was measured in a prazosin radioligand binding assay.
Intracellular Ca^+2 responses were measured as follows in HEK293 cells stably expressing either the bovine α-1A or hamster α-1B adrenergic receptor. Between 40,000 to 50,000 cells were plated per well in 96-well poly-D-lysine coated plates in 0.2 ml DMEM containing 10% heat-inactivated fetal calf serum, 1% antibiotic-antimycotic and 0.25 μg/ml puromycin one day prior to use. Cells were washed twice with HBSS supplemented with 10 mM HEPES, 2.0 mM CaCl2 and 2.5 mM probenicid, and subsequently incubated at 37° C. for 60 minutes with 4 μM Fluo-4 (Molecular Probes; Eugene, Oreg.). The extracellular dye was washed from the plates twice prior to placing the plates in the fluorometric imaging plate reader (FLIPR; Molecular Devices; Sunnyvale, Calif.). Ligands were diluted in HBSS and aliquoted into a 96-well microplate. Drugs were tested over the concentration range of 0.64 nM to 10,000 nM. Data for Ca^+2 responses were obtained in arbitrary fluorescence units.

mice [2] = assay: NMDA-induced tactile hypersensitivity in mice; assay type: in vivo, mouse; conditions: result in words
Protocol: (§1) Spinal drug injections were performed as follows. […] Briefly, a sterile 30-gauge ½ inch needle attached to a microsyringe was inserted between the L5 and L6 vertebrae. The mouse was held firmly by the pelvic girdle in one hand, while the syringe was held in the other hand at an angle of approximately 20° above the vertebral column. The needle was inserted into the tissue to one side of the L6 spinous process, into the groove between the spinous and transverse processes. The needle angle was decreased to about 10°, and the needle slowly advanced forward into the intervertebral space until a pop was felt and there was a visible serpentine tail movement. Compounds were slowly injected in the subarachnoid space in a volume of 5 μl. Each compound was tested at multiple doses. The minimal efficacious dose was used for all subsequent experiments.
(§2) Sensitivity to light touch was quantified by scoring the response of mice to light stroking of their flanks with a small paintbrush, which is not normally painful. […] Statistical calculations of significance for in vivo studies were done using a two-tailed Students t-test.

mice [3] = assay: Sulprostone-induced tactile hypersensitivity in mice; assay type: in vivo, mouse; conditions: for analgesic activity in sulprostone-induced tactile hypersensitivity: result in words
Protocol: The activity of a synthetic EP1/EP3 receptor-selective prostaglandin agonist, sulprostone, also was assayed.
as §1, §2

human α-2A receptor = biological target: T2, human α-2A receptor (Homo sapiens, UniProt P08913); conditions: percent efficacy relative to brimonidine
T2 sequence (P08913 1-465): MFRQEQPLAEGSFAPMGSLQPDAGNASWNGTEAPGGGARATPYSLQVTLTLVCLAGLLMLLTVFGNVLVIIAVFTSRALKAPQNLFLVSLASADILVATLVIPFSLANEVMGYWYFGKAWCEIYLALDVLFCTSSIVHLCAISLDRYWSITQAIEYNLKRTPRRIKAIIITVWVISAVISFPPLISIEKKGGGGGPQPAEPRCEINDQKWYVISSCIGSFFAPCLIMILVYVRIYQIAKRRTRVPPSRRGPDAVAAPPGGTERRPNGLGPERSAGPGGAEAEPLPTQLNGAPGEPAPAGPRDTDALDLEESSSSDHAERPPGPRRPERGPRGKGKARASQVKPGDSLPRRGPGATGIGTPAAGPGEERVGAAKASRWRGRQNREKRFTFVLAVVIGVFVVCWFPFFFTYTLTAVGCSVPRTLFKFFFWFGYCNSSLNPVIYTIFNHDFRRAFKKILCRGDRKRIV
Protocol: The human α-2A and α-2C receptor supernatants were added, in varying amounts, to naive PC12 cells, which were then incubated for 48 hours. The transduced cell populations were replated at a lower density and grown in media containing 100 ug/ml puromycin.
Intracellular cAMP measurement was performed as follows. PC12 cells stably expressing the human α-2A or human α-2C adrenergic receptors were plated in 96-well poly-D-lysine coated plates at a density of 30,000 cells per well in 100 μl DMEM supplemented with 10% horse serum, 5% heat inactivated fetal bovine serum, 1% antibiotic-antimycotic and 100 μg/ml puromycin. Cells were grown overnight at 37° C. and 5% CO2. Cells were dosed by adding an equal volume of media containing IBMX (to a final concentration of 1 mM), forskolin (to a final concentration of 10 μM) and the appropriate drug dilution (to a final concentration of between 10^−5 M and 10^−12 M). After a 10 minute incubation, the media was aspirated and the cells lysed with 200 μl lysis buffer (Amersham Biosciences; Piscataway, N.J.). Plates were stored at −20° C. for up to 24 hours prior to assay. Intracellular cAMP was determined using the Biotrak cAMP enzyme immunoassay system (Amersham Biosciences) according to the manufacturer's instructions. Plates were read on a plate reader at 450 nm.

Row | SMILES | bovine α1A % E [1] [%] | agonist activity at the α-1A receptor [1] | inhibition of NMDA-induced tactile hypersensitivity (mice [2]; wildtype mice) | inhibition of NMDA-induced tactile hypersensitivity (mice [2]; α-2A knockout mice) | inhibition of NMDA-induced tactile hypersensitivity (mice [2]; α-2C knockout mice) | analgesic activity in sulprostone-induced tactile hypersensitivity (mice [3]; wildtype mice) | analgesic activity in sulprostone-induced tactile hypersensitivity (mice [3]; α-2A knockout mice) | analgesic activity of clonidine co-administered with prazosin (mice [3]; α-2C knockout mice, prazosin 100 ng/kg i.p., clonidine 400 ng i.t., sulprostone 200 ng i.t.) | analgesic activity in sulprostone-induced tactile hypersensitivity (mice [3]; α-2C knockout mice) | human α2A % E (human α-2A receptor) [%]
1 | Clc1cccc(Cl)c1N=C1NCCN1 [Clonidine] | 62 | partial agonists | complete inhibition of tactile hypersensitivity | neither clonidine nor brimonidine inhibited | complete inhibition of tactile hypersensitivity | analgesic in wildtype mice; also recorded: analgesic in wild type mice | not in α-2A or α-2C knockout mice; also recorded: neither clonidine nor brimonidine were analgesic | restore the analgesic activity | not in α-2A or α-2C knockout mice; also recorded: not in α-2C knockout mice | 94
2 | Brc1c(NC2=NCCN2)ccc2nccnc12 [Brimonidine, 5-bromo-6-(2-imidazolin-2-ylamino)quinoxaline] | 15 | weak activity | complete inhibition of tactile hypersensitivity | neither clonidine nor brimonidine inhibited | complete inhibition of tactile hypersensitivity | analgesic | neither clonidine nor brimonidine were analgesic |  | analgesic | 91
